In ChEMBL document CHEMBL1201862, “PubChem BioAssay data set” (2004):
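Cells were grown in 96-well plates and exposed to each compound for 48 hours at five concentrations; endpoints were interpolated linearly between bracketing concentrations, or set to the highest concentration if not reached. Here, GI50 denotes the concentration required for 50% inhibition of growth.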 Calls of active or inactive are those of the source. Cut-off read from the data, not from the text of the source: active = GI50 up to about 1.1 µM and inactive = higher.

How the values were obtained:
Test in all cases: inhibition of tumour cell growth, NCI panel, 48 h
SNB-75 = tested on: SNB-75
ACHN = tested on: ACHN
CCRF-CEM = tested on: CCRF-CEM
SK-MEL-28 = tested on: SK-MEL-28
SW-620 = tested on: SW-620
Malme-3M = tested on: Malme-3M
SK-OV-3 = tested on: SK-OV-3
A549 = tested on: A549
SR = tested on: SR
T47D = tested on: T47D
HCT-116 = tested on: HCT-116
PC-3 = tested on: PC-3
SN12C = tested on: SN12C
NCI-H522 = tested on: NCI-H522
HOP-62 = tested on: HOP-62
Hs-578T = tested on: Hs-578T
UACC-62 = tested on: UACC-62
BT-549 = tested on: BT-549
NCI/ADR-RES = tested on: NCI/ADR-RES
MCF7 = tested on: MCF7

Measured: GI50

CN(C)c1c(C2OC(CO)C(O)C2O)c(=O)c1=O (stereo not given)
inactive: SNB-75 > 100 µM | ACHN > 100 µM | CCRF-CEM 82.2 µM | SK-MEL-28 > 100 µM | SW-620 > 100 µM | Malme-3M > 100 µM | SK-OV-3 > 100 µM | A549 > 100 µM | SR > 100 µM | T47D > 100 µM | HCT-116 > 100 µM | PC-3 > 100 µM | SN12C > 100 µM | NCI-H522 > 100 µM | HOP-62 > 100 µM | Hs-578T > 100 µM | UACC-62 > 100 µM | BT-549 > 100 µM | NCI/ADR-RES > 100 µM

O=c1oc2c(Br)c(O)c(Br)cc2c2ccccc12
inactive: SNB-75 32 µM | ACHN 30.8 µM | CCRF-CEM 25.6 µM | SK-MEL-28 35.3 µM | SW-620 36.6 µM | Malme-3M 26.5 µM | A549 32.5 µM | SR 23.2 µM | T47D 25 µM | HCT-116 29.4 µM | MCF7 16.3 µM | PC-3 21 µM | SN12C 26.5 µM | NCI-H522 15.8 µM | HOP-62 30.5 µM | Hs-578T 20.7 µM | UACC-62 20.1 µM | BT-549 29 µM | NCI/ADR-RES 12.2 µM

[N-]=[N+]=Nc1c(Cl)c(=O)n(-c2ccccc2)c2ccccc12
inactive: SNB-75 18.5 µM | ACHN 21.5 µM | CCRF-CEM 11.9 µM | SK-MEL-28 17.6 µM | SW-620 14.6 µM | Malme-3M 22.2 µM | SK-OV-3 37.2 µM | A549 28.4 µM | SR 31.4 µM | T47D 11.8 µM | HCT-116 17.8 µM | MCF7 21.8 µM | PC-3 18.7 µM | SN12C 22 µM | HOP-62 24 µM | Hs-578T 25.3 µM | UACC-62 15.1 µM | BT-549 19.9 µM | NCI/ADR-RES 24.2 µM

COC1OC2COC(C)(C)OC2C2OC(C)(C)OC12 (stereo not given)
inactive: ACHN 41.8 µM | CCRF-CEM 19 µM | SK-MEL-28 > 100 µM | SW-620 > 100 µM | Malme-3M > 100 µM | SK-OV-3 78.2 µM | A549 85.1 µM | T47D > 100 µM | HCT-116 > 100 µM | MCF7 23.6 µM | PC-3 80.5 µM | SN12C 21 µM | NCI-H522 > 100 µM | HOP-62 21.7 µM | Hs-578T 17 µM | UACC-62 45.1 µM | BT-549 > 100 µM | NCI/ADR-RES 63.8 µM

O=[N+]([O-])c1ccc(/N=N/c2c(O)ccc3cc(S(=O)(=O)O)cc(S(=O)(=O)O)c23)cc1
inactive: SNB-75 > 100 µM | ACHN > 100 µM | CCRF-CEM > 100 µM | SK-MEL-28 > 100 µM | SW-620 > 100 µM | Malme-3M > 100 µM | SK-OV-3 > 100 µM | A549 > 100 µM | SR > 100 µM | T47D > 100 µM | HCT-116 > 100 µM | PC-3 > 100 µM | SN12C > 100 µM | NCI-H522 > 100 µM | HOP-62 > 100 µM | Hs-578T > 100 µM | UACC-62 > 100 µM | BT-549 > 100 µM | NCI/ADR-RES > 100 µM

CC(C)C1CN1CC(O)Cn1ccnc1[N+](=O)[O-] (stereo not given)
inactive: SNB-75 > 100 µM | ACHN > 100 µM | CCRF-CEM > 100 µM | SK-MEL-28 > 100 µM | SW-620 > 100 µM | Malme-3M 62.2 µM | SK-OV-3 > 100 µM | A549 > 100 µM | T47D > 100 µM | HCT-116 > 100 µM | MCF7 > 100 µM | PC-3 > 100 µM | SN12C > 100 µM | NCI-H522 > 100 µM | HOP-62 > 100 µM | Hs-578T > 100 µM | UACC-62 > 100 µM | BT-549 > 100 µM | NCI/ADR-RES > 100 µM

COc1nc2ccc(CNc3ccc(C(=O)O)cc3)cc2nc1OC
inactive: SNB-75 > 10 µM | ACHN > 10 µM | CCRF-CEM > 10 µM | SK-MEL-28 > 10 µM | SW-620 > 10 µM | Malme-3M > 10 µM | SK-OV-3 > 10 µM | A549 > 10 µM | T47D > 10 µM | HCT-116 > 10 µM | MCF7 > 10 µM | PC-3 > 10 µM | SN12C > 10 µM | NCI-H522 > 10 µM | HOP-62 > 10 µM | Hs-578T > 10 µM | UACC-62 > 10 µM | BT-549 > 10 µM | NCI/ADR-RES > 10 µM

CCN(CCCN(CC)C(=O)Nc1c(C)cccc1C)C(=O)Nc1c(C)cccc1C
inactive: SNB-75 40.3 µM | ACHN > 100 µM | SK-MEL-28 > 100 µM | SW-620 > 100 µM | Malme-3M > 100 µM | SK-OV-3 > 100 µM | A549 > 100 µM | T47D 35.4 µM | HCT-116 > 100 µM | MCF7 > 100 µM | PC-3 > 100 µM | SN12C > 100 µM | NCI-H522 > 100 µM | HOP-62 > 100 µM | Hs-578T > 100 µM | UACC-62 > 100 µM | BT-549 > 100 µM | NCI/ADR-RES > 100 µM

CCOC(=O)c1nc[nH]c1/N=N/N(C)N
inactive: SNB-75 > 100 µM | ACHN > 100 µM | SK-MEL-28 > 100 µM | SW-620 > 100 µM | Malme-3M > 100 µM | SK-OV-3 > 100 µM | A549 > 100 µM | T47D 20.8 µM | HCT-116 > 100 µM | MCF7 98.4 µM | PC-3 > 100 µM | SN12C > 100 µM | NCI-H522 22.4 µM | HOP-62 > 100 µM | Hs-578T > 100 µM | UACC-62 > 100 µM | BT-549 > 100 µM | NCI/ADR-RES > 100 µM

O=C(O)CCC(NC(=O)c1ccc(Nc2cnc3ccc(C(F)(F)F)cc3n2)cc1)C(=O)O (stereo not given)
inactive: SNB-75 > 100 µM | ACHN > 100 µM | CCRF-CEM > 100 µM | SK-MEL-28 > 100 µM | SW-620 > 100 µM | Malme-3M > 100 µM | SK-OV-3 > 100 µM | A549 > 100 µM | SR > 100 µM | T47D > 100 µM | HCT-116 > 100 µM | MCF7 > 100 µM | PC-3 > 100 µM | SN12C > 100 µM | HOP-62 > 100 µM | Hs-578T 45.9 µM | UACC-62 > 100 µM | BT-549 > 100 µM | NCI/ADR-RES > 100 µM

C=C1C(=O)OC2C1CC(OC(C)=O)/C(C)=C/CCC1(C)OC21 (stereo not given)
inactive: SNB-75 > 100 µM | ACHN > 100 µM | CCRF-CEM > 100 µM | SK-MEL-28 > 100 µM | SW-620 > 100 µM | Malme-3M > 100 µM | SK-OV-3 > 100 µM | A549 > 100 µM | T47D > 100 µM | HCT-116 > 100 µM | MCF7 > 100 µM | PC-3 > 100 µM | SN12C > 100 µM | NCI-H522 > 100 µM | Hs-578T > 100 µM | UACC-62 > 100 µM | BT-549 > 100 µM | NCI/ADR-RES > 100 µM
